Experimental data reported in ChEMBL document CHEMBL5512603, “Development of de-novo coronavirus 3-chymotrypsin-like protease (3CLpro) inhibitors since COVID-19 outbreak: A strategy to tackle challenges of persistent virus infection” (Eur J Med Chem, 2024).

What was measured:
[1] = target: T1, Replicase polyprotein 1ab (Severe acute respiratory syndrome coronavirus 2, UniProt P0DTD1); assay: Inhibition of 2019-nCoV-2 3CLp using fluorescent substrate by FRET assay
[2] = Cytotoxicity against African green monkey Vero E6 cells; assay type: toxicity, cell-based, Vero C1008; details: chlorocebus sabaeus
[3] = target: T1, Replicase polyprotein 1ab; assay: Inhibition of SARS-CoV-2 3CLp by mass spectrometry
[4] = target: T1, Replicase polyprotein 1ab; assay: Inhibition of SARS-CoV-2 3CLp
[5] = target: Protein cereblon/Replicase polyprotein 1ab (Severe acute respiratory syndrome coronavirus 2, UniProt P0DTD1+Q96SW2); assay: PROTAC activity at SARS-CoV-2 Main protease/CRBN E3 ligase (unknown origin)
[6] = target: T1, Replicase polyprotein 1ab; assay: Inhibition of SARS-CoV-2 3CLp using fluorescent substrate by FRET assay
[7] = target: T1, Replicase polyprotein 1ab; assay: Inhibition of SARS-CoV-2 recombinant main protease; assay type: single protein

Sequence of Protein cereblon/Replicase polyprotein 1ab (Q96SW2 whole entry, other chains not shown): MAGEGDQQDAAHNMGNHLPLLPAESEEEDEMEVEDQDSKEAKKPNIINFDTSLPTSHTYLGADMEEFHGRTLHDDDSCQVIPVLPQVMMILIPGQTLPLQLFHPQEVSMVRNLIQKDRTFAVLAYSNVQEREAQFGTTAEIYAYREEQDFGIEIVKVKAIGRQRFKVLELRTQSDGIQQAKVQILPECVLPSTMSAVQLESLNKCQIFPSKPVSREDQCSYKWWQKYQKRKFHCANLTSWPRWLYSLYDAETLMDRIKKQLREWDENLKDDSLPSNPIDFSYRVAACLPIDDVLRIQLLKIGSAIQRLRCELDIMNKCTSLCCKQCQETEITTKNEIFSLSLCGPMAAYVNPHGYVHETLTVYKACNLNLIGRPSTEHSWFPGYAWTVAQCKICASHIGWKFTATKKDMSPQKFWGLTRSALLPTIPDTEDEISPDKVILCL

Structure (SMILES): CC(C)(C)NC(=O)[C@@H](c1cccnc1)N(C(=O)c1c[nH]cn1)c1ccc(C(C)(C)C)cc1
- IC50 [1]: 0.96 µM
- CC50 [2]: 129 µM

Structure (SMILES): Cc1cncc(-n2c(=O)nc(Nc3cc4cn(C)nc4cc3Cl)n(Cc3cc(C#N)c(F)cc3C)c2=O)c1
- IC50 [3]: 0.035 µM

Structure (SMILES): C[C@H](NC(=O)[C@@H](c1cccnc1)N(C(=O)c1ccco1)c1ccc(-c2ccccc2)cc1)c1ccccc1
- IC50 [1]: 0.66 µM
- CC50 [2]: > 200 µM

Structure (SMILES): Cn1cc2cc(/N=c3\[nH]c(=O)n(Cc4cn(CCCCC(=O)Nc5cccc6c5C(=O)N(C5CCC(=O)NC5=O)C6)nn4)c(=O)n3Cc3cc(F)c(F)cc3F)c(Cl)cc2n1 (stereo unspecified)
- IC50 [4]: < 0.1 µM
- EC50 [5]: < 0.1 µM

Structure (SMILES): C[C@H](NC(=O)[C@@H](c1cccnc1)N(C(=O)CCl)c1ccc(-c2ccccc2)cc1)c1ccccc1
- IC50 [6]: 0.05 µM

Structure (SMILES): O=C(O)c1ccc(Nc2nc(=O)n(Cc3ccc[nH]c3=O)c(=O)n2Cc2cc(F)c(F)c(F)c2)cc1
- IC50 [3]: < 1 µM

Structure (SMILES): COc1cc(Cl)cc(-c2cc(-c3c[nH]c(=O)[nH]c3=O)cn(-c3cccnc3)c2=O)c1
- IC50 [7]: 1 µM

Structure (SMILES): Cn1cc2cc(/N=c3\[nH]c(=O)n(Cc4cn(CCOCC(=O)Nc5cccc6c5C(=O)N(C5CCC(=O)NC5=O)C6)nn4)c(=O)n3Cc3cc(F)c(F)cc3F)c(Cl)cc2n1 (stereo unspecified)
- IC50 [4]: > 0.1 µM
- EC50 [5]: < 0.1 µM

Structure (SMILES): O=c1[nH]cc(-c2cc(-c3cc(Cl)cc(COc4ccccc4)c3)c(=O)n(-c3cccnc3)c2)c(=O)[nH]1
- IC50 [7]: 0.128 µM

Structure (SMILES): O=c1[nH]cc(-c2cc(-c3cc(Cl)cc(COc4c(F)cccc4F)c3)c(=O)n(-c3cccnc3)c2)c(=O)[nH]1
- IC50 [7]: 0.036 µM

Structure (SMILES): Cn1cc2cc(/N=c3\[nH]c(=O)n(Cc4cn(CCCCCC(=O)Nc5cccc6c5C(=O)N(C5CCC(=O)NC5=O)C6)nn4)c(=O)n3Cc3cc(F)c(F)cc3F)c(Cl)cc2n1 (stereo unspecified)
- IC50 [4]: < 0.1 µM
- EC50 [5]: < 0.1 µM

Structure (SMILES): Cn1cc2cc(/N=c3\[nH]c(=O)n(Cc4cn(CCCCCCC(=O)Nc5cccc6c5C(=O)N(C5CCC(=O)NC5=O)C6)nn4)c(=O)n3Cc3cc(F)c(F)cc3F)c(Cl)cc2n1 (stereo unspecified)
- IC50 [4]: > 0.1 µM
- EC50 [5]: < 0.1 µM

Structure (SMILES): CC(C)COc1cc(Cl)cc(-c2cc(-c3c[nH]c(=O)[nH]c3=O)cn(-c3cccnc3)c2=O)c1
- IC50 [7]: 0.19 µM

Structure (SMILES): CCn1nnnc1Cn1c(=O)[nH]/c(=N\c2cc3cn(C)nc3cc2Cl)n(Cc2cc(F)c(F)cc2F)c1=O
- IC50 [1]: 0.16 µM

Structure (SMILES): Cn1cc2cc(/N=c3\[nH]c(=O)n(Cc4cn(CCOCCOCC(=O)Nc5cccc6c5C(=O)N(C5CCC(=O)NC5=O)C6=O)nn4)c(=O)n3Cc3cc(F)c(F)cc3F)c(Cl)cc2n1 (stereo unspecified)
- IC50 [4]: < 0.1 µM
- EC50 [5]: < 0.1 µM

Structure (SMILES): Cn1cc2cc(/N=c3\[nH]c(=O)n(Cc4cn(CCCC(=O)Nc5cccc6c5C(=O)N(C5CCC(=O)NC5=O)C6)nn4)c(=O)n3Cc3cc(F)c(F)cc3F)c(Cl)cc2n1 (stereo unspecified)
- IC50 [4]: > 0.1 µM
- EC50 [5]: < 0.1 µM

Structure (SMILES): O=c1[nH]cc(-c2cc(-c3cc(Cl)cc(OCCc4ccccc4)c3)c(=O)n(-c3cccnc3)c2)c(=O)[nH]1
- IC50 [7]: 0.037 µM

Structure (SMILES): Cn1cc2cc(/N=c3\[nH]c(=O)n(Cc4cn(CCCCCCC(=O)Nc5cccc6c5C(=O)N(C5CCC(=O)NC5=O)C6=O)nn4)c(=O)n3Cc3cc(F)c(F)cc3F)c(Cl)cc2n1 (stereo unspecified)
- IC50 [4]: < 0.1 µM
- EC50 [5]: > 0.1 µM

Structure (SMILES): CC(=O)NCCn1cc2cc(Nc3nc(=O)n(Cc4ccc[nH]c4=O)c(=O)n3Cc3cc(F)c(F)c(F)c3)c(Cl)cc2n1
- IC50 [3]: < 1 µM

Structure (SMILES): Cn1cc2cc(/N=c3\[nH]c(=O)n(Cc4cn(CCOCCOCC(=O)Nc5cccc6c5C(=O)N(C5CCC(=O)NC5=O)C6)nn4)c(=O)n3Cc3cc(F)c(F)cc3F)c(Cl)cc2n1 (stereo unspecified)
- IC50 [4]: < 0.1 µM
- EC50 [5]: < 0.1 µM

Structure (SMILES): Cn1cnc(Cn2c(=O)cc(Nc3cc4cn(C)nc4cc3OC(F)(F)F)n(Cc3cc(F)c(F)cc3F)c2=O)n1
- IC50 [3]: 0.01 µM

Structure (SMILES): O=C1c2c(O)cc(O)c([Se][Se]c3c(O)cc(O)c4c3OC(c3cc(O)c(O)c(O)c3)C(O)C4=O)c2CC(c2cc(O)c(O)c(O)c2)C1O (stereo unspecified)
- IC50 [6]: 0.81 µM

Structure (SMILES): CC(C)(C)c1ccc(N(C(=O)c2ccco2)[C@@H](C(=O)NC2CCCC2)c2cccnc2)cc1
- IC50 [1]: 2.51 µM
- CC50 [2]: 101 µM

Structure (SMILES): CCn1nncc1Cn1c(=O)[nH]/c(=N\c2cc3cn(C)nc3cc2Cl)n(Cc2cc(F)c(F)cc2F)c1=O
- IC50 [1]: 0.123 µM

Structure (SMILES): Cn1cc2cc(/N=c3\[nH]c(=O)n(Cc4cn(CCOCCOCCOCC(=O)Nc5cccc6c5C(=O)N(C5CCC(=O)NC5=O)C6)nn4)c(=O)n3Cc3cc(F)c(F)cc3F)c(Cl)cc2n1 (stereo unspecified)
- IC50 [4]: > 0.1 µM
- EC50 [5]: < 0.1 µM

Structure (SMILES): O=c1[nH]cccc1Cn1c(=O)nc(Nc2cc3cn(C4CCOCC4)nc3cc2Cl)n(Cc2cc(F)c(F)c(F)c2)c1=O
- IC50 [3]: < 1 µM

Structure (SMILES): Cn1cc2cc(/N=c3\[nH]c(=O)n(Cc4cn(CCCCC(=O)Nc5cccc6c5C(=O)N(C5CCC(=O)NC5=O)C6=O)nn4)c(=O)n3Cc3cc(F)c(F)cc3F)c(Cl)cc2n1 (stereo unspecified)
- IC50 [4]: < 0.1 µM
- EC50 [5]: < 0.1 µM

Structure (SMILES): Cc1cc(Cn2c(Nc3cc4cn(C)nc4cc3Cl)cc(=O)n(Cc3ncn(C)n3)c2=O)c(F)cc1F
- IC50 [3]: 0.012 µM

Structure (SMILES): CC(=O)Nc1nc2cc(Cl)c(Nc3nc(=O)n(Cc4ncn(C)n4)c(=O)n3Cc3cc(F)c(F)c(Cl)c3)cc2s1
- IC50 [3]: < 1 µM

Structure (SMILES): CC(C)(C)c1ccc(N(C(=O)c2ccco2)[C@@H](C(=O)NC2CC2)c2cccnc2)cc1
- IC50 [1]: 3.86 µM
- CC50 [2]: 52.8 µM

Structure (SMILES): Cn1cc2cc(/N=c3\[nH]c(=O)n(Cc4cn(CCOCC(=O)Nc5cccc6c5C(=O)N(C5CCC(=O)NC5=O)C6=O)nn4)c(=O)n3Cc3cc(F)c(F)cc3F)c(Cl)cc2n1 (stereo unspecified)
- IC50 [4]: > 0.1 µM
- EC50 [5]: < 0.1 µM
